Measurements published in patent publication US20240210412A1, “SULFONYL-TRIAZOLE COMPOUNDS USEFUL AS LIGANDS AND INHIBITORS OF PROSTAGLANDIN REDUCTASE 2” (University of Virginia Patent Foundation, priority 2021, published 2024).

Assays:
Assay in all cases: SILAC LC-MS ABPP
Type in all cases: cell-based
Conditions in all cases: 25 μM 2 h, live DM93 cells
P68371 = target: T1, P68371 (Homo sapiens, UniProt P68371)
T1 construct: performing SuTEx compound screening directly in cells; endogenous in cells; host or cells: DM93 cells (SILAC)
How it was run: (§1)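 SILAC DM93 melanoma; heavy cells got SuTEx fragment 25 μM 2 h 37 °C, light got DMSO; then HHS-475 100 μM 2 h. Soluble fraction (100,000×g) CuAAC to desthiobiotin-azide (200 μM), light/heavy mixed 1:1, tryptic digest, avidin enrichment, LC-MS/MS.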

P49792 = target: T2, P49792 (Homo sapiens, UniProt P49792)
T2 construct: endogenous in cells; host or cells: DM93 cells (SILAC)
How it was run: as §1

Q14566 = target: T3, Q14566 (Homo sapiens, UniProt Q14566)
T3 construct: performing SuTEx compound screening directly in cells; endogenous in cells; host or cells: DM93 cells (SILAC), soluble fraction
How it was run: as §1

Q92878 = target: T4, Q92878 (Homo sapiens, UniProt Q92878)
T4 construct: endogenous in cells; host or cells: DM93 cells (SILAC), live-cell treatment
How it was run: as §1

P42704 = target: T5, P42704 (Homo sapiens, UniProt P42704)
T5 construct: endogenous in cells; host or cells: DM93 cells (SILAC)
How it was run: as §1

P13010 = target: T6, P13010 (Homo sapiens, UniProt P13010)
T6 construct: endogenous in cells; host or cells: DM93 cells (SILAC)
How it was run: as §1

Q00535 = target: T7, Q00535 (Homo sapiens, UniProt Q00535)
T7 construct: performing SuTEx compound screening directly in cells; endogenous in cells; host or cells: DM93 cells (SILAC)
How it was run: as §1

Q14247 = target: T8, Q14247 (Homo sapiens, UniProt Q14247)
T8 construct: performing SuTEx compound screening directly in cells; endogenous in cells; host or cells: DM93 cells (SILAC), soluble fraction
How it was run: as §1

P30533 = target: T9, P30533 (Homo sapiens, UniProt P30533)
T9 construct: endogenous in cells; host or cells: DM93 (SILAC)
How it was run: as §1

P05455 = target: T10, P05455 (Homo sapiens, UniProt P05455)
T10 construct: endogenous in cells; host or cells: DM93 cells (SILAC)
How it was run: as §1

P14550 = target: T11, P14550 (Homo sapiens, UniProt P14550)
T11 construct: endogenous in cells; host or cells: DM93 cells (SILAC)
How it was run: as §1

Q9H223 = target: T12, Q9H223 (Homo sapiens, UniProt Q9H223)
T12 construct: endogenous in cells; host or cells: DM93 cells (SILAC), treated live; soluble proteome analysed
How it was run: as §1

Q04837 = target: T13, Q04837 (Homo sapiens, UniProt Q04837)
T13 construct: performing SuTEx compound screening directly in cells; endogenous in cells; host or cells: DM93 cells (SILAC)
How it was run: as §1

P61978 = target: T14, P61978 (Homo sapiens, UniProt P61978)
T14 construct: performing SuTEx compound screening directly in cells; endogenous in cells; host or cells: DM93 cells (SILAC)
How it was run: as §1

O00267 = target: T15, O00267 (Homo sapiens, UniProt O00267)
T15 construct: endogenous in cells; host or cells: DM93
How it was run: as §1

Q9UMX5 = target: T16, Q9UMX5 (Homo sapiens, UniProt Q9UMX5)
T16 construct: endogenous in cells; host or cells: DM93 cells (SILAC)
How it was run: as §1

Q9HAU0 = target: T17, Q9HAU0 (Homo sapiens, UniProt Q9HAU0)
T17 construct: endogenous in cells; host or cells: DM93 cells (SILAC), treated live; soluble proteome analysed
How it was run: as §1

Q04323 = target: T18, Q04323 (Homo sapiens, UniProt Q04323)
T18 construct: performing SuTEx compound screening directly in cells; endogenous in cells; host or cells: DM93 cells (SILAC)
How it was run: as §1

T13 sequence (Q04837 17-148): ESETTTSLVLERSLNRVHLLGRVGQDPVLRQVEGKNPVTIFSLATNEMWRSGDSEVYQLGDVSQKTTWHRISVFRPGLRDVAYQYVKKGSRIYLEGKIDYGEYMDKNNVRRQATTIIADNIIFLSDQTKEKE
T12 sequence (Q9H223 whole entry): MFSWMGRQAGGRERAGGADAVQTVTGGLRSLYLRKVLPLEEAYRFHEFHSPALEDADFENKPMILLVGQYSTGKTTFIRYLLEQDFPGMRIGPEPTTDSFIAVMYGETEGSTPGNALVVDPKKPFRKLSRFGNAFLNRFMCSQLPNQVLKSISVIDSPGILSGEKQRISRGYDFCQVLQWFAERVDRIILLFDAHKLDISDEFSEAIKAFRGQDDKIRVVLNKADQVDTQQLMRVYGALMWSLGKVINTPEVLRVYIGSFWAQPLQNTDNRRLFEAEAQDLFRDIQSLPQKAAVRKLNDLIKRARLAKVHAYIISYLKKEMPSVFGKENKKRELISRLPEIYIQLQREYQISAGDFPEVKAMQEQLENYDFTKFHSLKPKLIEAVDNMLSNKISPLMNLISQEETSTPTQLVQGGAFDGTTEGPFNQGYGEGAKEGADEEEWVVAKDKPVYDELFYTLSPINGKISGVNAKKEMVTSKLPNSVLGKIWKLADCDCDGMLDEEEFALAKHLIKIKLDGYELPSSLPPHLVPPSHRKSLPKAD
T3 sequence (Q14566 whole entry): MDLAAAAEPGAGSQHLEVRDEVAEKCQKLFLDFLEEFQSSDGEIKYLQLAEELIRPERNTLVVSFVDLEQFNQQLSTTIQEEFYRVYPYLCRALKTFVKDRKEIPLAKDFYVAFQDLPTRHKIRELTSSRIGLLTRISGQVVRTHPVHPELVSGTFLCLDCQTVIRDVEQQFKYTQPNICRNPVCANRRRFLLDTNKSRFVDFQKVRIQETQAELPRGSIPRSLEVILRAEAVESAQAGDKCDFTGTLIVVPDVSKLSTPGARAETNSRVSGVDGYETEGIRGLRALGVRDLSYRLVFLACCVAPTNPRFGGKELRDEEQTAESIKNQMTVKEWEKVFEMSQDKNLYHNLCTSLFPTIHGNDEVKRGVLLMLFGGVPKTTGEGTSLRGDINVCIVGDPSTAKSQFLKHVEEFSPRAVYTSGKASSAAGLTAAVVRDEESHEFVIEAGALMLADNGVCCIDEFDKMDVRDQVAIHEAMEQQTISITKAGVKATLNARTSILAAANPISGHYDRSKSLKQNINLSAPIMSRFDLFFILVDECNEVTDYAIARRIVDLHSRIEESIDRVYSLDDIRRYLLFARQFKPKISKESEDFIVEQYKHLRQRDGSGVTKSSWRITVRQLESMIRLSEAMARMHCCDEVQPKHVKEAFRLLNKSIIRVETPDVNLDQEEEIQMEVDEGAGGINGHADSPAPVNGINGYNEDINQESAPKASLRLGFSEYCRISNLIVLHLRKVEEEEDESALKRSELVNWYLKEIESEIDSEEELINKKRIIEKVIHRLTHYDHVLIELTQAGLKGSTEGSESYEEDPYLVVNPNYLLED
T2 sequence (P49792 whole entry): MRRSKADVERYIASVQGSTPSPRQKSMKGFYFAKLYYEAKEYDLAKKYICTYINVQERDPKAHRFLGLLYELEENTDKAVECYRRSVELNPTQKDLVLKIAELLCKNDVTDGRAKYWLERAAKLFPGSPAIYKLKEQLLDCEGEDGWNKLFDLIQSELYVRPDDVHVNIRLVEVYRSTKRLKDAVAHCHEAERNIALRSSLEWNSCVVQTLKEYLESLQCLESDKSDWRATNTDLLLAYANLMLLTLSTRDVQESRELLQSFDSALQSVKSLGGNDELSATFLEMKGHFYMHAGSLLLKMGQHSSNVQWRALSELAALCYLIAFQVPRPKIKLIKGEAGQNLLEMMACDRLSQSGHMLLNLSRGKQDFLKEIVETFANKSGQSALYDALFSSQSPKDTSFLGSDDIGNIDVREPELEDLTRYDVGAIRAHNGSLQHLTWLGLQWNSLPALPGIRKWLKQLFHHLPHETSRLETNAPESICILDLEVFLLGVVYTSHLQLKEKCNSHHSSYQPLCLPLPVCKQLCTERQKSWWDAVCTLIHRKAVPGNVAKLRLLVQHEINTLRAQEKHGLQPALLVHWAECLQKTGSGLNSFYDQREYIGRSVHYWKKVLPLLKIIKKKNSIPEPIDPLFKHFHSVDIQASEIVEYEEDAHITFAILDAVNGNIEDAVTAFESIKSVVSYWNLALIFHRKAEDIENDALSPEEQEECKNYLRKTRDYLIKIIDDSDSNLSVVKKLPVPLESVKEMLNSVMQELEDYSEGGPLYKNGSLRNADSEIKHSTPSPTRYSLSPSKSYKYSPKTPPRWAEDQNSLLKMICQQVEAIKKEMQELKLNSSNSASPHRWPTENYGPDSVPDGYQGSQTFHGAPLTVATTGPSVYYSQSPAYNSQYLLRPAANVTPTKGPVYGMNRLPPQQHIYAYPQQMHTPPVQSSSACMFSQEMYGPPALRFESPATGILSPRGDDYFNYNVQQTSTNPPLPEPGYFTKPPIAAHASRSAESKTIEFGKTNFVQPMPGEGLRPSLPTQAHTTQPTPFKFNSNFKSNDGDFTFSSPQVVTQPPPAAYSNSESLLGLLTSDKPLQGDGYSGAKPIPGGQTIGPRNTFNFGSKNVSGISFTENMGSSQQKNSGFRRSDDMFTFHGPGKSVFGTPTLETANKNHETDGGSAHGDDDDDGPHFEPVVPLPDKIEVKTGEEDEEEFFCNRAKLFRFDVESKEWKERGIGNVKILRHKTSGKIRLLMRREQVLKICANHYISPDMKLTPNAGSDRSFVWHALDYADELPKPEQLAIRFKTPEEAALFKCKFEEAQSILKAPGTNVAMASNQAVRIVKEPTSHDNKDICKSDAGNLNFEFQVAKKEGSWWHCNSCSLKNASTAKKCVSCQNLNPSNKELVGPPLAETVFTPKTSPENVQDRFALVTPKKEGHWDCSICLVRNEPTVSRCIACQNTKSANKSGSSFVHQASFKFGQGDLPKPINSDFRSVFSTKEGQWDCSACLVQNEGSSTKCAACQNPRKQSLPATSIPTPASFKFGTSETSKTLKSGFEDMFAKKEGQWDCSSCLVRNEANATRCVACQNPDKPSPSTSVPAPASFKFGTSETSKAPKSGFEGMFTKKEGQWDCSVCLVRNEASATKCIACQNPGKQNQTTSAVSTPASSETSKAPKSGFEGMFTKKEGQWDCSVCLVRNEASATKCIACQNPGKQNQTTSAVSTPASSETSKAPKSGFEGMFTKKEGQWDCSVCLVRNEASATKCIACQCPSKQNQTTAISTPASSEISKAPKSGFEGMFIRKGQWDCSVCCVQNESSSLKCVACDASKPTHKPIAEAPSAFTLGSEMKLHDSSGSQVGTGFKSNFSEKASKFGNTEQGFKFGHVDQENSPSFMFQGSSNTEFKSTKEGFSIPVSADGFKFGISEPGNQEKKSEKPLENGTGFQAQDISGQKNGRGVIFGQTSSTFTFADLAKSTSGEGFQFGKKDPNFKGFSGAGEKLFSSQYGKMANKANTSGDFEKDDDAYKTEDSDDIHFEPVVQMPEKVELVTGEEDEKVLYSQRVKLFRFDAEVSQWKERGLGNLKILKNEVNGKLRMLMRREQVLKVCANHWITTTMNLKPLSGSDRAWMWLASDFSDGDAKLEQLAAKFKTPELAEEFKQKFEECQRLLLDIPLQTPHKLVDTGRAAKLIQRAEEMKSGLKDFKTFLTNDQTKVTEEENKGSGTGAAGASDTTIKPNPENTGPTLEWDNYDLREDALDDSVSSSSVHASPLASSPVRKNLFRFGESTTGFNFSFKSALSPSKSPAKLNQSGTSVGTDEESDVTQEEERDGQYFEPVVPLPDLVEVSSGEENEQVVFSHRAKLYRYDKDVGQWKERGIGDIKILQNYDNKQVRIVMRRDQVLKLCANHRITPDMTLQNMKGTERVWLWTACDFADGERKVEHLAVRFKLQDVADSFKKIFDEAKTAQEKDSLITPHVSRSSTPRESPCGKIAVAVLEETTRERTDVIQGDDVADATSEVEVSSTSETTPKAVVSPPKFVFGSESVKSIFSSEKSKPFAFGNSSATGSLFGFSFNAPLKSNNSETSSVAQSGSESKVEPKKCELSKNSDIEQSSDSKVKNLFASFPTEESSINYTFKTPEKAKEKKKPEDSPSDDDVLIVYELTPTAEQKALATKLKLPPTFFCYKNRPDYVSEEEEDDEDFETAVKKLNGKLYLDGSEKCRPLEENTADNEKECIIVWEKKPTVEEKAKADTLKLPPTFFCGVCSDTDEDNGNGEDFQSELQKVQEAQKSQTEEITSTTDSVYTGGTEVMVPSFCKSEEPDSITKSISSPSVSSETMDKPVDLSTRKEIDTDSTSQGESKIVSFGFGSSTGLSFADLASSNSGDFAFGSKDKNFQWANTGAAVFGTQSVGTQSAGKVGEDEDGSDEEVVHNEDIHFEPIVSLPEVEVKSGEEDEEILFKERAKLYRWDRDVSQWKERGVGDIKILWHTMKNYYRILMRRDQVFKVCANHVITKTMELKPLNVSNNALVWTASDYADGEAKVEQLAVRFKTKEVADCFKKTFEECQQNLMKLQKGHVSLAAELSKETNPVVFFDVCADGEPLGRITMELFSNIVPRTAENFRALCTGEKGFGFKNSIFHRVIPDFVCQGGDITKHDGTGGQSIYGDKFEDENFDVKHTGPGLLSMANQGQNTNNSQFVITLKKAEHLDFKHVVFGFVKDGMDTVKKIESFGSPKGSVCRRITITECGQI
T9 sequence (P30533 35-357): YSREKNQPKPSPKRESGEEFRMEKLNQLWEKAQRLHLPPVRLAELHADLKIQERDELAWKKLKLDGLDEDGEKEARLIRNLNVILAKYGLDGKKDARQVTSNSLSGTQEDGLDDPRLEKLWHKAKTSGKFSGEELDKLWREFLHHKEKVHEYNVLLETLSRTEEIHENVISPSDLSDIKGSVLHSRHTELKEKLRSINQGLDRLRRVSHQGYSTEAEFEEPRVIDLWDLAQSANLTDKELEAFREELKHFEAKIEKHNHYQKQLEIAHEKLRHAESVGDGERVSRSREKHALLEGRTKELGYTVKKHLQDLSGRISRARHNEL

O=C(NC1CC1)c1ccc(S(=O)(=O)n2cncn2)cc1 [HHS-0101, 4-((1H-1,2,4-triazol-1-yl)sulfonyl)-N-cyclopropylbenzamide]
liganded tyrosine site 50 (P68371): HHS0101.Y (tyrosine sites that showed >80% reductions (SR >5) in probe labeling in cells treated with compounds (liganded sites)) | liganded tyrosine site 1983 (P49792): HHS0101.Y (tyrosine sites that showed >80% reductions (SR >5) in probe labeling in cells treated with compounds (liganded sites))

O=C(NCC1CC1)c1ccc(S(=O)(=O)n2cncn2)cc1 [HHS-0201, 4-((1H-1,2,4-triazol-1-yl)sulfonyl)-N-(cyclopropylmethyl)benzamide]
liganded tyrosine site 783 (Q14566): HHS0201.Y (tyrosine sites that showed >80% reductions (SR >5) in probe labeling in cells treated with compounds (liganded sites)) | liganded tyrosine site 244 (Q92878): HHS0201.Y|HHS0301.Y (tyrosine sites that showed >80% reductions (SR >5) in probe labeling in cells treated with compounds (liganded sites)) | liganded tyrosine site 1365 (P42704): HHS0201.Y (tyrosine sites that showed >80% reductions (SR >5) in probe labeling in cells treated with compounds (liganded sites)) | liganded tyrosine site 295 (P13010): HHS0201.Y (tyrosine sites that showed >80% reductions (SR >5) in probe labeling in cells treated with compounds (liganded sites)) | liganded tyrosine site 242 (Q00535): HHS0201.Y (tyrosine sites that showed >80% reductions (SR >5) in probe labeling in cells treated with compounds (liganded sites))

O=C(NC1CCCCC1)c1ccc(S(=O)(=O)n2cncn2)cc1 [HHS-0301, 4-((1H-1,2,4-triazol-1-yl)sulfonyl)-N-cyclohexylbenzamide]
liganded tyrosine site 154 (Q14247): HHS0301.Y|HHS0401.Y (tyrosine sites that showed >80% reductions (SR >5) in probe labeling in cells treated with compounds (liganded sites)) | liganded tyrosine site 336 (P30533): HHS0301.Y|HHS0701.Y (tyrosine sites that showed >80% reductions (SR >5) in probe labeling in cells treated with compounds (liganded sites))

O=C(NCc1ccccc1)c1ccc(S(=O)(=O)n2cncn2)cc1 [HHS-0401, 4-((1H-1,2,4-triazol-1-yl)sulfonyl)-N-benzylbenzamide]
liganded tyrosine site 188 (P05455): HHS0401.Y (tyrosine sites that showed >80% reductions (SR >5) in probe labeling in cells treated with compounds (liganded sites)) | liganded tyrosine site 135 (P14550): HHS0401.Y (tyrosine sites that showed >80% reductions (SR >5) in probe labeling in cells treated with compounds (liganded sites))

O=C(c1ccc(S(=O)(=O)n2cncn2)cc1)N1CCC(c2ccccc2)CC1 [HHS-0701, (4-((1H-1,2,4-triazol-1-yl)sulfonyl)phenyl)(4-phenylpiperidin-1-yl)methanone]
liganded tyrosine site 70 (Q9H223): HHS0701.Y (tyrosine sites that showed >80% reductions (SR >5) in probe labeling in cells treated with compounds (liganded sites)) | liganded tyrosine site 101 (Q04837): HHS0701.Y (tyrosine sites that showed >80% reductions (SR >5) in probe labeling in cells treated with compounds (liganded sites)) | liganded tyrosine site 119 (Q04837): HHS0701.Y (tyrosine sites that showed >80% reductions (SR >5) in probe labeling in cells treated with compounds (liganded sites)) | liganded tyrosine site 138 (P61978): HHS0701.Y (tyrosine sites that showed >80% reductions (SR >5) in probe labeling in cells treated with compounds (liganded sites)) | liganded tyrosine site 249 (O00267): HHS0701.Y (tyrosine sites that showed >80% reductions (SR >5) in probe labeling in cells treated with compounds (liganded sites)) | liganded tyrosine site 82 (Q9UMX5): HHS0701.Y (tyrosine sites that showed >80% reductions (SR >5) in probe labeling in cells treated with compounds (liganded sites)) | liganded tyrosine site 553 (Q9HAU0): HHS0701.Y (tyrosine sites that showed >80% reductions (SR >5) in probe labeling in cells treated with compounds (liganded sites)) | liganded tyrosine site 179 (Q04323): HHS0701.Y (tyrosine sites that showed >80% reductions (SR >5) in probe labeling in cells treated with compounds (liganded sites))
